Results published in PubChem BioAssay AID256 (DTP/NCI, 2004).
Values joined by “and” are separate entries in the source; they are usually repeats but may differ in a detail not shown here. Equal entries are not always repeated. Inconclusive results and toxic doses are left out.

System: CD2F1 mice, L1210 leukemia ip, survival T/C
Experiment: NCI In Vivo Anticancer Drug Screen. Data for tumor model L1210 Leukemia (intraperitoneal) in CD2F1 (CDF1) mice
Conditions: endpoint: mean survival time, higher = longer survival
Method in brief: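 Each value reflects a quotient of treated over vehicle control outcomes in mice with a transplanted tumor.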

[1] = dose: 100.0 mg/kg/injection, schedule: Q01DX009 (ip), vehicle: saline with Tween-80
[2] = dose: 100.0 mg/kg/injection, schedule: Q04DX003 (ip), vehicle: saline with Tween-80
[3] = dose: 200.0 mg/kg/injection, schedule: Q01DX009 (ip), vehicle: saline with Tween-80
[4] = dose: 400.0 mg/kg/injection, schedule: Q01DX009 (ip), vehicle: saline with Tween-80
[5] = dose: 100.0 mg/kg/injection, schedule: Q01DX001 (ip), vehicle: saline
[6] = dose: 200.0 mg/kg/injection, schedule: Q01DX001 (ip), vehicle: saline
[7] = dose: 12.5 mg/kg/injection, schedule: Q01DX009 (ip), vehicle: saline with Tween-80
[8] = dose: 25.0 mg/kg/injection, schedule: Q01DX009 (ip), vehicle: saline with Tween-80
[9] = dose: 100.0 mg/kg/injection, schedule: Q04DX002 (ip), vehicle: saline with Tween-80
[10] = dose: 50.0 mg/kg/injection, schedule: Q01DX009 (ip), vehicle: saline with Tween-80
[11] = dose: 100.0 mg/kg/injection, schedule: Q01DX001 (ip), vehicle: saline with Tween-80
[12] = dose: 200.0 mg/kg/injection, schedule: Q01DX001 (ip), vehicle: saline with Tween-80
[13] = dose: 400.0 mg/kg/injection, schedule: Q01DX001 (ip), vehicle: saline with Tween-80
[14] = dose: 25.0 mg/kg/injection, schedule: Q01DX009 (ip), vehicle: saline sonified
[15] = dose: 50.0 mg/kg/injection, schedule: Q01DX009 (ip), vehicle: saline sonified
[16] = dose: 100.0 mg/kg/injection, schedule: Q01DX009 (ip), vehicle: saline sonified

O=C(c1ccc(-c2ccccc2)cc1)C1C(c2ccccc2)N1C1CCCCC1 (stereo unspecified) was tested, and the T/C (dose: 12.5 mg/kg/injection, schedule: Q01DX009 (ip), vehicle: other) was 102 % of control and 96 % of control, the T/C (dose: 25.0 mg/kg/injection, schedule: Q01DX001 (ip), vehicle: water) was 96 % of control and 98 % of control and the T/C (dose: 25.0 mg/kg/injection, schedule: Q01DX009 (ip), vehicle: other) was 96 % of control and 97 % of control. For the same compound, the T/C (dose: 50.0 mg/kg/injection, schedule: Q01DX001 (ip), vehicle: water) was 88 % of control and 90 % of control, the T/C (dose: 50.0 mg/kg/injection, schedule: Q01DX009 (ip), vehicle: other) was 102 % of control and 88 % of control and the T/C (dose: 100.0 mg/kg/injection, schedule: Q01DX001 (ip), vehicle: water) was 95 % of control and 101 % of control. For the same compound, the T/C (dose: 100.0 mg/kg/injection, schedule: Q01DX009 (ip), vehicle: other) was 86 % of control and 97 % of control, the T/C (dose: 200.0 mg/kg/injection, schedule: Q01DX001 (ip), vehicle: water) was 90 % of control and 92 % of control and the T/C (dose: 200.0 mg/kg/injection, schedule: Q01DX009 (ip), vehicle: other) was 94 % of control. For the same compound, the T/C (dose: 400.0 mg/kg/injection, schedule: Q01DX001 (ip), vehicle: water) was 92 % of control.

In the case of Clc1ccc(CC[PH+]2CC=CC2)cc1.Clc1ccc(CC[PH+]2CC=CC2)cc1.[Cl][Ni][Cl], the T/C (dose: 12.5 mg/kg/injection, schedule: Q01DX009 (ip), vehicle: DMSO) is reported as 101 % of control, the T/C (dose: 25.0 mg/kg/injection, schedule: Q01DX009 (ip), vehicle: DMSO) is reported as 101 % of control and the T/C (dose: 25.0 mg/kg/injection, schedule: Q04DX002 (ip), vehicle: saline with Tween-80) is reported as 91 % of control. For the same compound, the T/C (dose: 50.0 mg/kg/injection, schedule: Q04DX002 (ip), vehicle: saline with Tween-80) was 95 % of control.

In the case of c1ccc(C(=NCCN=C(c2ccccc2)c2ccccc2)c2ccccc2)cc1, the T/C [1] is reported as 97 % of control, the T/C [2] is reported as 97 % of control and the T/C [3] is reported as 92 % of control. For the same compound, the T/C (dose: 200.0 mg/kg/injection, schedule: Q04DX003 (ip), vehicle: saline with Tween-80) was 97 % of control, the T/C [4] was 95 % of control and the T/C (dose: 400.0 mg/kg/injection, schedule: Q04DX003 (ip), vehicle: saline with Tween-80) was 97 % of control.

With CCOC(CNCc1cccc(OC)c1)OCC the T/C [5] was 100 % of control and the T/C [6] was 100 % of control.

In the case of O=c1[nH]c(=O)n(C2OC(CO)C(O)C2O)nc1SCc1ccccc1 (stereo unspecified), the T/C (dose: 12.5 mg/kg/injection, schedule: Q01DX005 (ip), vehicle: distilled water + Tween-80) is reported as 100 % of control, the T/C (dose: 25.0 mg/kg/injection, schedule: Q01DX005 (ip), vehicle: distilled water + Tween-80) is reported as 97 % of control and the T/C (dose: 50.0 mg/kg/injection, schedule: Q01DX005 (ip), vehicle: distilled water + Tween-80) is reported as 101 % of control. The T/C (dose: 100.0 mg/kg/injection, schedule: Q01DX005 (ip), vehicle: distilled water + Tween-80) was 97 % of control and the T/C (dose: 200.0 mg/kg/injection, schedule: Q01DX005 (ip), vehicle: distilled water + Tween-80) was 97 % of control.

In the case of OCN(CO)c1nc(N(CO)CO)nc(N(CO)CO)n1, the T/C (dose: 6.3 mg/kg/injection, schedule: Q01DX009 (ip), vehicle: saline with Tween-80) is reported as 92 % of control, the T/C [7] is reported as 96 % of control and the T/C [8] is reported as 87 % of control.

In the case of O=C(OCC#CCOC(=O)c1c(Cl)ccc(Cl)c1Cl)c1c(Cl)ccc(Cl)c1Cl, the T/C [9] is reported as 89 % of control and the T/C (dose: 200.0 mg/kg/injection, schedule: Q04DX002 (ip), vehicle: saline with Tween-80) is reported as 89 % of control.

For C[N+](C)(C)Cc1ccc([N+](=O)[O-])cc1, the T/C (dose: 5.0 mg/kg/injection, schedule: Q01DX001 (ip), vehicle: saline) was 98 % of control, the T/C (dose: 10.0 mg/kg/injection, schedule: Q01DX001 (ip), vehicle: saline) was 106 % of control and the T/C (dose: 20.0 mg/kg/injection, schedule: Q01DX001 (ip), vehicle: saline) was 101 % of control. The T/C (dose: 40.0 mg/kg/injection, schedule: Q01DX001 (ip), vehicle: saline) was 98 % of control and the T/C (dose: 80.0 mg/kg/injection, schedule: Q01DX001 (ip), vehicle: saline) was 98 % of control.

With CC1(C)OC2C(CO)OC(NC3=C(C#N)CCCC3)C2O1 (stereo unspecified) the T/C (dose: 12.5 mg/kg/injection, schedule: Q01DX005 (ip), vehicle: other) was 103 % of control, the T/C (dose: 25.0 mg/kg/injection, schedule: Q01DX005 (ip), vehicle: other) was 105 % of control and the T/C (dose: 50.0 mg/kg/injection, schedule: Q01DX005 (ip), vehicle: other) was 103 % of control. For the same compound, the T/C (dose: 100.0 mg/kg/injection, schedule: Q01DX005 (ip), vehicle: other) was 97 % of control and the T/C (dose: 200.0 mg/kg/injection, schedule: Q01DX005 (ip), vehicle: other) was 103 % of control.

In the case of CC(C)c1cc(C(C)C)c(S(=O)(=O)OCC2OC(OC3(COS(=O)(=O)c4c(C(C)C)cc(C(C)C)cc4C(C)C)OC(COS(=O)(=O)c4c(C(C)C)cc(C(C)C)cc4C(C)C)C(O)C3O)C(O)C(O)C2O)c(C(C)C)c1 (stereo unspecified), the T/C [10] is reported as 98 % of control, the T/C [1] is reported as 95 % of control and the T/C [3] is reported as 102 % of control.

In the case of CC(CCC(=O)O)C1CCC2C3CCC4CC(O)CCC4(C)C3CC(O)C12C (stereo unspecified), the T/C [11] is reported as 104 % of control and 94 % of control, the T/C [12] is reported as 101 % of control and the T/C [13] is reported as 92 % of control.

For CC(=O)Nc1ccccc1[N+](=O)[O-], the T/C [11] was 103 % of control, the T/C [12] was 101 % of control and the T/C [13] was 103 % of control.

In the case of Cc1ccc(S(=O)(=O)Nc2c([N+](=O)[O-])cc([N+](=O)[O-])c3ccccc23)cc1, the T/C (dose: 6.25 mg/kg/injection, schedule: Q01DX009 (ip), vehicle: saline with Tween-80) is reported as 104 % of control, the T/C (dose: 6.25 mg/kg/injection, schedule: Q04DX003 (ip), vehicle: saline with Tween-80) is reported as 100 % of control and the T/C [7] is reported as 100 % of control. The T/C (dose: 12.5 mg/kg/injection, schedule: Q04DX003 (ip), vehicle: saline with Tween-80) was 96 % of control, the T/C [8] was 103 % of control and the T/C (dose: 25.0 mg/kg/injection, schedule: Q04DX003 (ip), vehicle: saline with Tween-80) was 100 % of control.

With CC1=CC(c2ccccc2)=CC(C)(C)C1 (tested in a mixture with another compound) the T/C [14] was 95 % of control, the T/C [15] was 103 % of control and the T/C [16] was 103 % of control. The T/C [2] was 94 % of control.

For CC1(C)N=C(N)N=C(N)N1c1ccc(CCc2ccccc2)cc1, the T/C [7] was 95 % of control and the T/C [8] was 87 % of control.

For O=C(O)CBr.O=C(O)CBr.[NH-]C1CCCCCCC1[NH-].[Pt+2] (stereo unspecified), the T/C (dose: 4.68 mg/kg/injection, schedule: Q01DX001 (ip), vehicle: distilled water + Tween-80) was 122 % of control, the T/C (dose: 9.36 mg/kg/injection, schedule: Q01DX001 (ip), vehicle: distilled water + Tween-80) was 119 % of control and the T/C (dose: 18.75 mg/kg/injection, schedule: Q01DX001 (ip), vehicle: distilled water + Tween-80) was 161 % of control.

In the case of OCC1OC(n2ncc3c(N/N=C/c4ccc(N(CCCl)CCCl)cc4)ncnc32)C(O)C1O (stereo unspecified), the T/C [8] is reported as 102 % of control, the T/C [10] is reported as 93 % of control and the T/C [1] is reported as 102 % of control. The T/C [3] was 89 % of control and the T/C [4] was 93 % of control.

CC(C)(C)N1CC1 was tested, and the T/C [9] was 102 % of control and the T/C (dose: 400.0 mg/kg/injection, schedule: Q04DX002 (ip), vehicle: saline with Tween-80) was 94 % of control.

With NNC(=O)c1cccc(N)c1 the T/C [14] was 98 % of control, the T/C [15] was 102 % of control and the T/C [16] was 102 % of control. For the same compound, the T/C [2] was 104 % of control.

With O=[N+]([O-])c1ccc(Cl)c(S(=O)O)c1 the T/C (dose: 100.0 mg/kg/injection, schedule: Q01DX009 (ip), vehicle: saline) was 95 % of control, the T/C (dose: 100.0 mg/kg/injection, schedule: Q04DX003 (ip), vehicle: saline) was 110 % of control and the T/C (dose: 200.0 mg/kg/injection, schedule: Q01DX009 (ip), vehicle: saline) was 106 % of control. For the same compound, the T/C (dose: 200.0 mg/kg/injection, schedule: Q04DX003 (ip), vehicle: saline) was 102 % of control, the T/C (dose: 400.0 mg/kg/injection, schedule: Q01DX009 (ip), vehicle: saline) was 103 % of control and the T/C (dose: 400.0 mg/kg/injection, schedule: Q04DX003 (ip), vehicle: saline) was 106 % of control.

With COc1ccc2c(c1)C1(C)CCC(=O)C(C)C1CC2 (stereo unspecified) the T/C [5] was 94 % of control, the T/C [6] was 96 % of control and the T/C (dose: 400.0 mg/kg/injection, schedule: Q01DX001 (ip), vehicle: saline) was 96 % of control.
